Each structure is given as a SMILES string.

On this series, the source says:
FIG. 4A illustrates a microneedle base 44 showing the hollow channel 50. FIG. 4B illustrates the microneedle base 44 coupled to the rapid-dissolving tips 40, which include tattoo ink. In one embodiment, the therapeutic bandage 10 may be producing the microneedles 26 and then coupling the microneedles 26 to the bandage matrix 30. In some embodiments, the microneedles 26 may be integrally formed with a portion of the bandage matrix 30. The microneedles are produced by forming the base 44, with the microchannel 50, and loading the base […] with the second immunomodulatory compound. The tip 40 is then produced and loaded with the first immunomodulatory compound. The tip 40 is then coupled to the base 44 to seal the microchannel […]. To test the mechanical strength of the microneedles 26, the tips 40 were loaded with insoluble tattoo ink (FIG. 4B). The microneedles 26 were then applied to cultured human skin explants using a 1 Newton application force. […] FIG. 4E illustrates a longitudinal section of explanted human skin showing spacing of microneedle deposition in the dermal layer. The kinetics of drug release were then measured using epifluorescence microscopy and two fluorescent dyes.

In the case of `CCN(CC)c1ccc2c(-c3ccc(S(=O)(=O)O)cc3S(=O)(=O)[O-])c3ccc(=[N+](CC)CC)cc-3oc2c1` [sulforhodamine B], the “diffusion radius compared with the tip dye” value is “approximately equal diffusion radius”, the “release of red fluorescence from the microneedle base” value is on record as “after about one hour” and the visibility of dye entry is reported as “barely visible”.

(Values after patent US11745001B2, “Therapeutic bandage” (University of Connecticut, priority 2020, dated 2023).)
